The record followed here is article PMC6934184, “Selective DNA-PKcs inhibition extends the therapeutic index of localized radiotherapy and chemotherapy” (The Journal of Clinical Investigation, 2019).

The experiment addresses T1, GRK1 (Homo sapiens, UniProt Q15835).
T1 construct: purchased Thermo Fisher Scientific (Life Technologies) SelectScreen
The experiment is described as follows: SelectScreen LanthaScreen. The format is binding. The following applies: read-out: % displacement. An outline of the steps: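 Percent values come from Thermo SelectScreen profiling of NU5455, combining activity and binding assays. CSF1R was run in Z'LYTE format at Km app ATP, and CAMK1 in Adapta format with ATP listed at 10.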

T1 sequence (Q15835 whole entry): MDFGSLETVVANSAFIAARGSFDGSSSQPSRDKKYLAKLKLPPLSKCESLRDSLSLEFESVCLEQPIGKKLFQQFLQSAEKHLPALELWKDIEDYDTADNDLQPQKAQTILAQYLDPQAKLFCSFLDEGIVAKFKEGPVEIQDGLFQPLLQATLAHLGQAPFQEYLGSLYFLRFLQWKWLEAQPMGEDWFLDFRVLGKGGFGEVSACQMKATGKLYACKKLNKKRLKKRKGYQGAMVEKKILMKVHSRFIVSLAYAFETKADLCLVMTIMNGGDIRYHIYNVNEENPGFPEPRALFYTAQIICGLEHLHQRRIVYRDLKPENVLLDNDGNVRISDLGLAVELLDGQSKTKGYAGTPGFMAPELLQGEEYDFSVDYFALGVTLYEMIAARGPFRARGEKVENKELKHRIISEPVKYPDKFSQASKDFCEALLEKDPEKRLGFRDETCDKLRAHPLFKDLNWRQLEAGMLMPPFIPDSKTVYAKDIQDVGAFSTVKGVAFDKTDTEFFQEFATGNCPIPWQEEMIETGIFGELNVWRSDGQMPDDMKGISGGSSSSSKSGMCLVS

For the compound `CN(C(=O)CN1CCOCC1)c1ccc2sc3c(-c4cccc5c(=O)cc(N6CC7CCC(C6)O7)oc45)cccc3c2c1` [NU5455], the inhibition at 1 µM was 1.3%.
